Laboratory results taken from patent US5719278A, “Tricyclic benzazepine vasopressin antagonists” (American Cyanamid Company, priority 1996, dated 1998).

Key:
Vasopressin V2 = Vasopressin V2 Antagonist Activity in Conscious Hydrated Rats; assay type: in vivo, rat; settings: 10 mg/kg orally, N = 2, AVP 0.4 μg/kg intraperitoneally; for Osmolality (mOsm/kg): urine
Description: Vasopressin V2 Antagonist Activity in Conscious Hyrdated Rats
Conscious hydrated rats are treated with compounds under study from 0.1 to 100 mg/kg orally or vehicle. Two to four rats are used for each compound. One hour later, arginine vasopressin (AVP, antidiuretic hormone, ADH) dissolved in peanut oil is administered at 0.4 μg/kg intraperitoneally. Two rats in each test would not receive arginine vasopressin but only the vehicle (peanut oil) to serve as water-loading control. Twenty minutes later each rat is given 30 mL/kg of deionized water orally by gavage and is placed individually in a metabolic cage equipped with a funnel and a graduated glass cylinder to collect urine for four hours. Urine volume is measured and osmolality analyzed by use of a Fiske One-Ten osmometer (Fiske Assoc., Norwood, Mass. U.S.A.). Urinary sodium, potassium, and chloride are analyzed by use of ion-specific electrodes in a Beckman E3(Electrolyte 3) Analyzer.
In the following results, […] and decreased osmolality relative to AVP-control indicates activity.

[1] = target: T1, Rat Kidney Medullary V2 Receptors (Rattus norvegicus, UniProt Q00788); assay: Binding Assay to Rat Kidney Medullary V2 Receptors; settings: for IC50: Rat Kidney Medullary V2 Receptors (no asterisk)
T1 construct: Medullary tissues from rat kidneys are dissected out; from tissue; host or cells: rat kidney medulla membranes
T1 sequence (Q00788 whole entry): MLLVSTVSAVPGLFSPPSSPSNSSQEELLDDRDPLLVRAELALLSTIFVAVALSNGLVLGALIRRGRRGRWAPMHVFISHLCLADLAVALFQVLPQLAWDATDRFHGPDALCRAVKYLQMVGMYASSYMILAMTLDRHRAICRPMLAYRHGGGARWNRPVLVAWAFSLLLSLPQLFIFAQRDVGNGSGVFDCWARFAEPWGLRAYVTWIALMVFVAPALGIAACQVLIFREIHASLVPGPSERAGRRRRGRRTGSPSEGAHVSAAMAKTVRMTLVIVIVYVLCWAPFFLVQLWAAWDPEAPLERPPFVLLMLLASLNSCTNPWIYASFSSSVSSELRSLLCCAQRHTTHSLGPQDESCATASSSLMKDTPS
Description: Binding Assay to Rat Kidney Medullary V2 Receptors
Medullary tissues from rat kidneys are dissected out, cut into small pieces and let soak in a […] sodium chloride solution containing 1.0 mM EDTA with many changes of the liquid phase, until the solution is clear of blood. The tissue is homogenized in a 0.25M sucrose solution containing 1.0 mM EDTA and 0.1 mM PMSF using a Potter-Elvehjem homogenizer with a teflon pestle. The homogenate is filtered through several layers (4 layers) of cheese cloth. The filtrate is rehomogenized using a dounce homogenizer, with a tight fitting pestle. The final homogenate is contrifuged at 1500×g for 15 min. The nuclear pellet is discarded and the supernatant fluid recentrifuged at 40,000×g for 30 min. The resulting pellet formed contains a dark inner part with the exterior, slightly pink. The pink outer part is suspended in a small amount of 50.0 mM Tris.HCl buffer, pH 7.4. The protein content is determined by the Lowry's method (Lowry et al, J. Biol. Chem., 1953). The membrane suspension is stored at -70° C., in 50.0 mM Tris.HCl, containing 0.2% inactivated BSA and 0.1 mM PMSF in aliquots of 1.0 ml containing 10.0 mg protein per ml of suspension until use in subsequent binding experiments.
For binding experiments, the following is added in μl volume to wells of a 96 well format of a microtiter plate: 100.0 μl of 100.0 mM Tris.HCl buffer containing 0.2% heat inactivated BSA, 10.0 mM MgCl2 and a mixture of protease inhibitors: leupeptin, 1.0 mg %; aprotinin, 1.0 mg %; 1,10-phenanthroline, 2.0 mg %; trypsin inhibitor, 10.0 mg % and 0.1 mM PMSF, 20.0 μl of [^3 H]Arginine^8, vasopressin (S.A. 75.0 Ci/mmole) at 0.8 nM and the reaction initiated by the addition of 80.0 μl of tissue membranes (200.0 μg tissue protein). The plates are left undisturbed on the bench top for 120 min. to reach equilibrium. Non-specific binding is assessed in the presence of 1.0 μM of unlabeled ligand, added in 20 μl volume. For test compounds, these are solubilized in 50% dimethylsulfoxide (DMSO) and added in 20.0 μl volume to a final incubation volume of 200 μl. Upon completion of binding, the content of each well is filtered off, using a Brandel® cell Harvester (Gaithersburg, Md.). The radioactivity trapped on the filter disk by the ligand-receptor complex is assessed by liquid scintillation counting in a Packard LS Counter, with an efficiency of 65% for tritium. The data are analyzed for IC50 values by the LUNDON-2 program for competition (LUNDON SOFTWARE, Ohio).

[2] = target: T2, V1 Receptor Subtype in Human Platelet (Homo sapiens, UniProt P37288); assay: Binding to Vasopressin V1 Receptor Subtype in Human Platelet Membranes
T2 construct: from tissue; host or cells: human platelets (platelet rich plasma from Hudson Valley Blood Services)
T2 sequence (P37288 whole entry): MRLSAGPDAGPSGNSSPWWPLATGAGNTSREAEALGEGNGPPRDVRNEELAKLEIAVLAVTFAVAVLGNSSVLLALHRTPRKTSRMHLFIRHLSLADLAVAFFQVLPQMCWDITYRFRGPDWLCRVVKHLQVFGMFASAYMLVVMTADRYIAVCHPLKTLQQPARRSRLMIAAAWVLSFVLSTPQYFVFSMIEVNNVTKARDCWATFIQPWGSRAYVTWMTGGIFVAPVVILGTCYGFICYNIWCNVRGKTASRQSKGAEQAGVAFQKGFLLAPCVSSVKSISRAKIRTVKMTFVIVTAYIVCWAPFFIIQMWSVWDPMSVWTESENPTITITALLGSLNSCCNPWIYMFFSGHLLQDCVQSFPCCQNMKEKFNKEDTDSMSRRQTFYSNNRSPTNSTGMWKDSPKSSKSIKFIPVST
Description: Radioligand Binding Experiments with Human Platelet Membranes
Platelet Source: Hudson Valley Blood Services, Westchester Medical Center, Valhalla, N.Y.
Frozen platelet rich plasma (PRP), received from the Hudson Valley Blood Services are thawed to room temperature. The tubes containing the PRP are centrifuged at 16,000×g for 10 min. at 4° C. and the supernatant fluid discarded. The platelets resuspended in an equal volume of 50.0 mM Tris.HCl, pH 7.5 containing 120 mM NaCl and 20.0 mM EDTA. The suspension is recentrifuged at 16,000×g for 10 min. This washing step is repeated one more time. The wash is discarded and the lysed pellets homogenized in low ionic strength buffer of Tris.HCl, 5.0 mM, pH 7.5 containing 5.0 mM EDTA. The homogenate is centrifuged at 39,000×g for 10 min. The resulting pellet is resuspended in Tris.HCl buffer, 70.0 mM, pH 7.5 and recentrifuged at 39,000×g for 10 min. The final pellet is resuspended in 50.0 mM Tris.HCl buffer pH 7.4 containing 120 mM NaCl and 5.0 mM HCl to give 1.0-2.0 mg protein per ml of suspension.
Binding to Vasopressin V1 Receptor Subtype in Human Platelet Membranes:
In wells of a 96 well format microtiter plate, add 100 μl of 50.0 mM Tris.HCl buffer containing 0.2% BSA and a mixture of protease inhibitors (aprotinin, leupeptin etc.). Then add 20 μl of [^3 H]Ligand: (Manning or Arg^8 Vasopressin), to give final concentrations ranging from 0.01 to 10.0 nM. Initiate the binding by adding 80.0 μl of platelet suspension (approx. 100 μg protein). Mix all reagents by pipetting the mixture up and down a few times. Non-specific binding is measured in the presence of 1.0 μM of unlabeled ligand (Manning or Arg^8 Vasopressin). Let the mixture stand undisturbed at room temperature for ninety (90) min. Upon this time, rapidly filter off the incubate under vacuum suction over GF/B filters, using a Brandel® Harvester. Determine the radioactivity caught on the filter disks by the addition of liquid scintillant and counting in a liquid scintillator

oxytocin receptors = target: T3, oxytocin receptors (Rattus norvegicus, UniProt P70536); assay: Oxytocin Receptor Binding; design: species or system Sprague-Dawley rat
T3 construct: The uteri are dissected out, cleaned of fat and connective tissues; from tissue; host or cells: uterus of DES-treated female Sprague-Dawley rats
T3 sequence (P70536 1-388): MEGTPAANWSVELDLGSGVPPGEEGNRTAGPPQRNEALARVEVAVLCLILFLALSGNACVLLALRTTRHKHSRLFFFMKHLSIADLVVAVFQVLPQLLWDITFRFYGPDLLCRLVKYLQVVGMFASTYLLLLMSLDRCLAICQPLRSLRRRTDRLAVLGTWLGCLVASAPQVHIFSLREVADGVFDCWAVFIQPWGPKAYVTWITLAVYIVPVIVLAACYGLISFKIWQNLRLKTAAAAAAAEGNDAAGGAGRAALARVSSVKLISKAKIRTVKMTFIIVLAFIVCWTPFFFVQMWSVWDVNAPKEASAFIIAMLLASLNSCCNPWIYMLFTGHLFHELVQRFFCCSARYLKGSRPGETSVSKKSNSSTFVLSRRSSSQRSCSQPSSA
Description: Oxytocin Receptor Binding
Female Sprague-Dawley rats weighing approximately 200-250 g are injected intramuscularly (i.m.) with 0.3 mg/kg of body weight of diethylstilbestrol (DES). The rats are sacrificed 18 hours later under pentobarbital anesthesia. The uteri are dissected out, cleaned of fat and connective tissues and rinsed in 50 ml of normal saline. The tissue pooled from six rats is homogenized in 50 ml of […] TriS.HCl, containing 0.5 mM dithiothreitol and 1.0 mM EDTA, adjusted to pH 7.4, using a polytron at setting 6 with three passes of 10 sec each. The homogenate is passed through two (2) layers of cheesecloth and the filtrate contrifuged at 1000×g for 10 min. The clear supernatant is removed and recentrifuged at 165,000×g for 30 min. The resulting pellet containing the oxytocin receptors is resuspended in 50.0 mM Tris.HCl containing 5.0 mM MgCl2 at pH 7.4, to give a protein concentration of 2.5 mg/ml of tissue suspension. This preparation is used in subsequent binding assays with [^3 H]Oxytocin.
Binding of 3,5-[^3 H]Oxytocin ([^3 H]OT) to its receptors is done in microtiter plates using [^3 H]OT, at various concentrations, in an assay buffer of 50.0 mM Tris.HCl, pH 7.4 and containing 5.0 mM MgCl2, and a mixture of protease inhibitors: BSA, 0.1 mg; aprotinin, 1.0 mg; 1,10-phenanthroline, 2.0 mg; […], 10.0 mg; and PMSF, 0.3 mg per 100 ml of buffer solution. Non-specific binding is determined in the presence of 1.0 uM unlabeled OT. The binding reaction is terminated after 60 min., at 22° C., by rapid filtration through glass fiber filters using a Brandel® cell harvester (Biomedical Research and Development Laboratories, Inc., Gaithersburg, Md.). Competition experiments are conducted at equilibrium using 1.0 nM [^3 H]OT and varying the concentration of the displacing agents. The concentrations of agent displacing 50% of [^3 H]OT at its sites (IC50) are calculated by a computer assisted LUNDON-2 program (LUNDON SOFTWARE INC., Ohio, U.S.A.).

SMILES	Urine Vol. (ml/4 hrs.) (Vasopressin V2)	Osmolality (mOsm/kg) (Vasopressin V2)	IC50 [1] [µM]	inhibition at 10 µM (oxytocin receptors) [%]	other results
O=C(Nc1ccc(C(=O)N2CCc3c[nH]nc3-c3ncccc32)cn1)c1ccccc1-c1ccccc1 [Example 368, N-[5-[(4,5-Dihydro[3,4-d]pyrido[3,2-b]azepin-6(1H)-yl)carbonyl]-2-pyridinyl][1,1'-biphenyl]-2-carboxamide]	20.3	371	–	–	–
O=C(c1ccc(-c2ccccc2)cc1)N1CCc2cn[nH]c2-c2ncccc21 [Example 364, 6-([1,1'-Biphenyl]-4-ylcarbonyl)-1,4,5,6-tetrahydropyrazolo[3,4-d]pyrido[3,2-b]azepine]	–	–	–	–	inhibition at 1 µM ([1]; Rat Kidney Medullary V2, at 1 μM): 17%; inhibition at 10 µM ([2]; 1.5 h, *Human Platelet V1, at 10 μM): 77%
O=C(Nc1ccc(C(=O)N2CCc3cn[nH]c3-c3sccc32)c(Cl)c1)c1cc(Cl)ccc1F [Example 4, N-[4-[(4,5-Dihydropyrazolo[3,4-d]thieno[3,2-b]azepin-6(1H)-yl)carbonyl]-3-chlorophenyl]-5-chloro-2-fluorobenzamide]	–	–	0.036	–	–
Cc1ccccc1C(=O)Nc1ccc(C(=O)N2CCc3c[nH]nc3-c3sccc32)cc1 [Example 7, N-[4-[[4,5-Dihydropyrazolo[3,4-d]thieno[3,2-b]azepin-6(2H)-yl]carbonyl]phenyl]-2-methylbenzamide]	20.8	322	–	65	–
Cn1cc2c(n1)-c1sccc1N(C(=O)c1ccc(NC(=O)c3ccc(Cl)cc3Cl)cc1)CC2 [Example 5, N-[4-[[4,5-Dihydro-2-methylpyrazolo[3,4-d]thieno[3,2-b]-azepin-6-(2H)-yl]carbonyl]phenyl]2,4-dichlorobenzamide]	–	–	–	47	–
Cc1ccccc1C(=O)Nc1ccc(C(=O)N2CCc3cn(C)nc3-c3sccc32)cc1 [Example 361]	–	–	–	57	IC50 (oxytocin receptors; 1.0 nM [^3 H]OT, 60 min., 22° C.): 6.4 µM
O=C(Nc1ccc(C(=O)N2CCc3cn[nH]c3-c3ncccc32)c(Cl)c1)c1ccccc1-c1ccccc1 [Example 366, N-[4-[(4,5-Dihydropyrazolo[3,4-d]pyrido[3,2-b]azepin-6(1H)-yl)carbonyl]-3-chlorophenyl][1,1'-biphenyl]-2-carboxamide]	17.8	431	–	–	–
Cc1ccc(F)cc1C(=O)Nc1ccc(C(=O)N2CCc3c[nH]nc3-c3sccc32)c(Cl)c1 [Example 3, N-[4-[(4,5-Dihydropyrazolo[3,4]thieno[3,2-b]azepin-6-(1H)-yl)carbonyl]-3-chlorophenyl]-5-fluoro-2-methylbenzamide]	–	–	0.0061	–	–
Cc1ccc(F)cc1C(=O)Nc1ccc(C(=O)N2CCc3cn[nH]c3-c3cccnc32)cc1 [Example 16, N-[4-[(4,5-Dihydropyrazolo[3,4-d]pyrido[2,3-b]azepin-6(1H)-yl)carbonyl]phenyl]-5-fluoro-2-methylbenzamide]	–	–	0.55	–	IC50 ([2]; *Binding to V1 Receptor Subtype in Human Platelet): 3.3 µM
